Measurements as given in patent US11000033B2, “Ketone or oxime compound, and herbicide” (NISSAN CHEMICAL CORPORATION, priority 2014, dated 2021).

Assays:
Assay type in all cases: in vivo
[1] = test system: Echinochloa oryzacola Vasing.; assay: Test Example 1: herbicidal activity, application before weed generation in submerged conditions (symbol A); settings: application herbicide amount 320 g/ha
In short: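 Compound emulsion was diluted to a set herbicide amount and applied to the water surface on the sowing day, into submerged (4 cm) alluvial-soil pots sown with mixed weed seeds and transplanted 2.5-leaf rice. Pots were held in a 25–30 °C greenhouse, and weeds were scored 0–5 by herbicidal ratio after 3 weeks.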

Scirpus juncoides = assay: Test Example 2: herbicidal activity, application during weed generation in submerged conditions (symbol B); settings: Table 23; application herbicide amount 320 g/ha; grade 0-5 by criteria of Test Example 1
In short: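 Alluvial soil in pots was flooded to a 4 cm water depth and sown with a mix of the three weed species, then grown in a greenhouse at 25° C. to 30° C. At the one- to two-leaf stage, an emulsifiable formulation diluted in water to a set dose was applied to the water surface. Effects were scored visually 3 weeks later.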

Cyperus difformis = assay: Test Example 3: herbicidal effect by foliage application, Wagner pot (symbol E); settings: application herbicide amount 320 g/ha, Table 24
In short: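 Weeds and rice were sown in alluvial soil under 0.1–0.5 cm of standing water and grown for 14 days in a 25–30 °C greenhouse. An emulsion of the compound, diluted in water to a set dose, was sprayed evenly onto the foliage. Effect was scored against fixed criteria 3 weeks after treatment.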

[2] = test system: Echinochloa crus-galli var. crus-galli; assay: Test Example 4: herbicidal effect by soil treatment (symbol H); settings: application herbicide amount 320 g/ha
In short: (§1)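 Seeds were sown in sterilized diluvial soil, covered with about 1.5 cm of soil, and the soil surface was sprayed with a water-diluted emulsion of the compound at a predetermined rate. Plants grew in a greenhouse at 25° C. to 30° C.; effects were scored visually 3 weeks after application.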

Amaranthus retroflexus [3] = assay: Test Example 4: herbicidal effect by soil treatment (symbol N); settings: application herbicide amount 320 g/ha
In short: as §1

Galium spurium [4] = assay: Test Example 4: herbicidal effect by soil treatment (symbol Q); settings: application herbicide amount 320 g/ha
In short: as §1

corn = assay: Test Example 4: effect on crop by soil treatment (symbol c); settings: application herbicide amount 320 g/ha
In short: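 The test used sterilized diluvial soil. Seed was set down in spots and overlaid with about 1.5 cm of soil before growth in a greenhouse kept at 25° C. to 30° C.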

rapeseed = assay: Test Example 4: effect on crop by soil treatment (symbol g); settings: application herbicide amount 320 g/ha
In short: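 Seeds were sown in spots on sterilized diluvial soil in a plastic box and covered with about 1.5 cm of soil. Plants were then grown in a greenhouse at 25° C. to 30° C.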

Avena fatua = assay: Test Example 5: herbicidal effect by foliage application, plastic box (symbol I); settings: 320 g/ha, 3 weeks after application
In short: (§2)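 Sowing in sterilized diluvial soil, 14 days' greenhouse growth at 25° C. to 30° C., then uniform small-sprayer foliar application of aqueous emulsion dilution; plants scored three weeks afterwards.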

Lolium multiflorum Lam. = assay: Test Example 5: herbicidal effect by foliage application, plastic box (symbol K); settings: 320 g/ha, 3 weeks after application
In short: as §2

Apera spica-venti = assay: Test Example 5: herbicidal effect by foliage application, plastic box (symbol L); settings: 320 g/ha, 3 weeks after application
In short: as §2

Abutilon theophrasti = assay: Test Example 5: herbicidal effect by foliage application, plastic box (symbol M); settings: 320 g/ha, 3 weeks after application
In short: as §2

Amaranthus retroflexus [5] = assay: Test Example 5: herbicidal effect by foliage application, plastic box (symbol N); settings: 320 g/ha, 3 weeks after application
In short: as §2

Stellaria media = assay: Test Example 5: herbicidal effect by foliage application, plastic box (symbol P); settings: 320 g/ha, 3 weeks after application
In short: as §2

Galium spurium [6] = assay: Test Example 5: herbicidal effect by foliage application, plastic box (symbol Q); settings: 320 g/ha, 3 weeks after application
In short: as §2

Veronica persica = assay: Test Example 5: herbicidal effect by foliage application, plastic box (symbol R); settings: 320 g/ha, 3 weeks after application
In short: as §2

| Structure (SMILES) | A (Echinochloa oryzacola Vasing.) herbicidal effect grade [1] | Herbicidal effect grade, B: Scirpus juncoides (Scirpus juncoides) | E herbicidal effect grade (Cyperus difformis) | Herbicidal effect grade, H: Echinochloa crus-galli var. crus-galli [2] | Herbicidal effect grade, N: Amaranthus retroflexus (Amaranthus retroflexus [3]) | Herbicidal effect grade, Q: Galium spurium (Galium spurium [4]) | Effect on crop grade, c: corn (corn) | Effect on crop grade, g: rapeseed (rapeseed) | I: Avena fatua, herbicidal effect grade (Avena fatua) | K: Lolium multiflorum Lam., herbicidal effect grade (Lolium multiflorum Lam.) | L: Apera spica-venti, herbicidal effect grade (Apera spica-venti) | M: Abutilon theophrasti, herbicidal effect grade (Abutilon theophrasti) | N: Amaranthus retroflexus, herbicidal effect grade (Amaranthus retroflexus [5]) | P: Stellaria media, herbicidal effect grade (Stellaria media) | Q: Galium spurium, herbicidal effect grade (Galium spurium [6]) | R: Veronica persica, herbicidal effect grade (Veronica persica) |
| --- | --- | --- | --- | --- | --- | --- | --- | --- | --- | --- | --- | --- | --- | --- | --- | --- |
| CC#Cc1cc(C)c(C2=C(O)CC(CC(=NOC)C3CC3)C2=O)c(C)c1 (centres unmarked) [9-008] | 5 (Herbicidal ratio of 90% or more (almost completely withered)) | 4 (Herbicidal ratio of 70% or higher and lower than 90%) | 5 (Herbicidal ratio of 90% or more (almost completely withered)) | 5 (Herbicidal ratio of 90% or more (almost completely withered)) | 4 (Herbicidal ratio of 70% or higher and lower than 90%) | 0 (Herbicidal ratio of 5% or lower (almost no effect)) | 4 (Herbicidal ratio of 70% or higher and lower than 90%) | 4 (Herbicidal ratio of 70% or higher and lower than 90%) | 4 (Herbicidal ratio of 70% or higher and lower than 90%) | 5 (Herbicidal ratio of 90% or more (almost completely withered)) | 5 (Herbicidal ratio of 90% or more (almost completely withered)) | 4 (Herbicidal ratio of 70% or higher and lower than 90%) | 0 (Herbicidal ratio of 5% or lower (almost no effect)) | 4 (Herbicidal ratio of 70% or higher and lower than 90%) | 2 (Herbicidal ratio of 20% or higher and lower than 40%) | 4 (Herbicidal ratio of 70% or higher and lower than 90%) |
| CC(CC1CC(O)=C(c2c(C)cc(-c3ccc(Cl)cc3)cc2C)C1=O)=NOCC(F)(F)F (centres unmarked) [9-024] | 5 (Herbicidal ratio of 90% or more (almost completely withered)) | 3 (Herbicidal ratio of 40% or higher and lower than 70%) | 5 (Herbicidal ratio of 90% or more (almost completely withered)) | 5 (Herbicidal ratio of 90% or more (almost completely withered)) | 3 (Herbicidal ratio of 40% or higher and lower than 70%) | 0 (Herbicidal ratio of 5% or lower (almost no effect)) | 0 (Herbicidal ratio of 5% or lower (almost no effect)) | 0 (Herbicidal ratio of 5% or lower (almost no effect)) | 5 (Herbicidal ratio of 90% or more (almost completely withered)) | 5 (Herbicidal ratio of 90% or more (almost completely withered)) | 5 (Herbicidal ratio of 90% or more (almost completely withered)) | 3 (Herbicidal ratio of 40% or higher and lower than 70%) | 1 (Herbicidal ratio of 5% or higher and lower than 20%) | 4 (Herbicidal ratio of 70% or higher and lower than 90%) | 4 (Herbicidal ratio of 70% or higher and lower than 90%) | 4 (Herbicidal ratio of 70% or higher and lower than 90%) |
